The source of these data is BindingDB's records for doi:10.1021/jm000443d (University of California At San Diego, 2001).

Molecules are shown by their SMILES.

This experiment concerns the target Protein kinase C alpha type (Homo sapiens, UniProt P17252). The experiment in a line: Inhibition of Protein kinase C alpha.
Usually IC50 stands for the concentration at which inhibition is half-maximal. Read a high IC50 as weaker potency in that assay. `O=C(N[C@@H]1CNCCC[C@H]1OC(=O)c1cc(O)c(C(=O)c2c(O)cccc2C(=O)O)c(O)c1)c1ccc(O)cc1` [Acyclic Balanol Analog (-)-1] had an IC50 of 0.074 nM.

Turning to `O=C(N[C@@H]1CS(=O)(=O)CCCC1OC(=O)c1ccc(C(=O)C2C(O)=CC=CC2C(=O)O)c(O)c1)c1ccc(O)cc1` (stereo not given in full), the IC50 is 9.6 nM.

For the molecule `O=C(N[C@@H]1CCCCCC1OC(=O)c1ccc(C(=O)C2C(O)=CC=CC2C(=O)O)c(O)c1)c1ccc(O)cc1` (stereo not given in full), the IC50 turned out to be 0.27 nM.

Take `O=C(N[C@@H]1CSCCCC1OC(=O)c1ccc(C(=O)C2C(O)=CC=CC2C(=O)O)c(O)c1)c1ccc(O)cc1` (stereo not given in full): inhibition was half-maximal at 3.3 nM (IC50).

On to `O=C(N[C@@H]1COCCCC1OC(=O)c1ccc(C(=O)C2C(O)=CC=CC2C(=O)O)c(O)c1)c1ccc(O)cc1` (stereo not given in full), for which half-maximal inhibition (IC50) was put at 6.7 nM.
